Measured values published in patent US20080207521A1, “PEPTIDE LIGAND TO IMPAIR CANCER CELL MIGRATION” (priority 2005, published 2008).

Tests used:
Assay type in all cases: cell-based, human
[1] = tested on: Wnt-5a antisense HB2 cells; assay: Migration of Wnt-5a antisense HB2 cells in modified Boyden chamber; settings: 95% pure peptide 100 μM; 18 h
Protocol: Cell migration analyses were performed in a modified Boyden chamber with a polycarbonate membrane (10 μm thick with a porous diameter of 8.0 μm) separating the two chambers (Transwell®; Costar, Cambridge, Mass.). As indicated in some experiments the membranes were coated with collagen by adding collagen-I (10 μg/ml) diluted in 0.25% acetic acid to the upper chamber for 1 h at 37° C., after which it was washed three times with PBS. Each experiment was initiated by detaching the cells by Versene treatment for 10-20 min at 37° C., washed, and re-suspended as a single cell suspension in serum-free DMEM medium supplemented with 0.5% BSA. Together with the indicated agonist a 0.2 ml cell suspension (containing 25,000 MDA-MB-468 or 50,000 HB2 cells) was then added to the upper chamber of the transwell. The lower chamber was filled with 0.6 ml serum-free but BSA-containing DMEM medium supplemented with 1 ng/ml of the chemoattractant IGF-I. As a control, IGF-I was excluded in some wells in each separate experiment. The cells were allowed to migrate in the Boyden chamber for 18 h at 37° C. in a humidified atmosphere of 95% air and 5% CO2. The experiments were terminated by removing the non-migratory cells with a cotton-tipped applicator from the upper surface of the membranes. The remaining cells on the lower surface that had migrated through the membrane were stained for 20 min with 0.5% crystal violet diluted in 20% methanol/80% water. After washing the membranes the number of stained cells per membrane and well was counted in an inverted microscope. The value from each separate experiment represents the median value of three individual wells.
(§1) Effects of the selected and pure peptides on the ability of Wnt-5a antisense HB2 cells to adhere and migrate. (A-E) The ability of the cells to adhere to collagen type I-coated wells was analyzed as previously described for FIG. 2 in the absence or presence of different concentrations of the indicated peptide. (F) Effect of the indicated peptides on migration of Wnt-5a antisense HB2 in a transwell migration assay. The cells were allowed to migrate for 18 h in the absence or presence of 100 μM peptide or 0.4 μg/ml of recombinant Wnt5a. The data are given as means±SEM of 6-7 separate experiments, each performed in triplicate. * p<0.05 and ** p<0.01.

DDR1 = assay: Collagen-induced DDR1 phosphorylation in Wnt-5a antisense HB2 cells (immunoprecipitation/Western blot); settings: crude peptide (approximately 65% pure) 100 μM; 90 min on collagen I
Protocol: The phosphorylation status of DDR1 was analyzed as previously described (12), with the following modifications. After serum-depletion for 16 h, the cells were detached with Versene and then allowed to adhere to collagen I for 60 (MDA-MB-468) or 90 min (HB2) at 37° C. The experiments were terminated by lysing both adherent and non-adherent cells with a lysis buffer (50 mM Tris pH 7.4, 1% Triton-X, 5 mM EDTA, 5 mM EGTA, 50 mM NaCl, 10 μg/ml aprotinin, 2.5 mM benzamidine, 1 mM pefabloc, 1 μg/ml leupeptin and 1 mM Na3VO4). For immunoblotting an anti-DDR1 rabbit polyclonal Ab, sc-532 (Santa Cruz Biotech, Santa Cruz, Calif.) was used at a dilution of 1:10,000. The Ab recognizes DDR1b/c, which is essential because collagen only induces phosphorylation of the b or c isoforms of DDR1 in mammary epithelial cells (10).
Effects of crude peptides on collagen-induced DDR1 phosphorylation in Wnt-5a antisense HB2 cells. Single cells were allowed to adhere to collagen I-coated plates in the presence of the indicated crude peptide (100 μM). (A) Experiments performed in the presence of peptides 167-173. (B) Experiments performed in the presence of peptides 175-180. After 90 min the cells were lysed and DDR1 immunoprecipitated. Subsequently, the immunoprecipitates were subjected to Western blot analysis with an anti-phosphotyrosine Ab and then, after stripping, with an anti-DDR1 Ab to ascertain equal loading. The blots shown are representative of 3 separate experiments The diagrams show densitometric analysis of DDR1 phosphorylation, expressed as per cent of control.

[2] = tested on: Wnt-5a antisense HB2 cells; assay: Adhesion of Wnt-5a antisense HB2 cells to collagen I (MTS); settings: for adhesion to collagen I, concentration-dependent analysis: 95% pure peptides, different concentrations
Protocol: The adhesion assay was carried out as previously described (12). Briefly, cells were serum-depleted for 16 h, detached with Versene and allowed to adhere as single cells to collagen I for 60 (MDA-MB-468) or 90 min (HB2) at 37° C. Non-adherent cells were removed by washing with PBS. The adherent cells were incubated with a (3-(4,5-dimethylthiazol-2-yl)-5-(3-carboxymethoxyphenyl)-2-(-4-sulfophenyl)-2H-tetrazolium, inner salt (MTS) dye reduction assay (Promega, Madison, Wis.) and absorbance was measured at 490 nm using a Fluostar microplate reader from BMG LabTechnologies (GmbH, Offenberg, Germany). In each experiment a single value was calculated based on the mean of adhesion from six separate wells after the adhesion to plastic alone had been subtracted. The CM used as a control in the adhesion assays was obtained from confluent Wnt-5a overexpressing HB2 cells (for experiments with Wnt-5a antisense HB2 cells) or Wnt-5a overexpressing MCF-7 cells (for MDA-MB-468 cells) stably transfected with a vector over-expressing Wnt5a. A collected CM was always used within three days.
To control the specificity of the CM, it was incubated with either the Wnt-5a or a control Ab for 45 min at 37° C. Subsequently 10 μl Protein A Sepharose was added for 30 min and after the protein A-bound antibodies were collected by centrifugation the remaining supernatants were used for the experiments.
Effects of crude peptides on adhesion of Wnt-5a antisense HB2 cells to collagen. (A) Single cells were allowed to adhere for 90 min in the absence or presence of the indicated crude peptides (100 μM). The amounts of adhesive cells were analyzed as described in the methods and the results are given as means±SEM of 7 separate experiments. (B) Adhesion of Wnt-5a antisense HB2 cells to collagen was analyzed after pre-treating the cells with an anti-[…]1-integrin Ab for 45 min before letting them adhere for 90 min in the absence or presence of peptides 171 or 175 (100 μM) or CM. The amounts of adhesive cells were analyzed as described in the methods and the results are given as means±SEM of 6 separate experiments (C) The diagram outlines a control of the presently used CM. The cells were allowed to adhere to collagen I-coated wells in the absence or presence of normal CM or Wnt-5a depleted CM. The amounts of adhesive cells were analyzed as described in the methods and the results are given as means±SEM of 6 separate experiments. Ns=not significant, * p<0.05, ** p<0.01 and *** p<0.001.
as §1

Sequence	migration [1]	DDR1 phosphorylation (DDR1)	adhesion to collagen I, concentration-dependent analysis [2]	adhesion to collagen after pre-treatment with blocking anti-β1-integrin Ab ([2]; anti-β1-integrin Ab 45 min at 37° C., peptide 100 μM, 90 min)	adhesion to collagen I ([2]; crude peptide (65% pure) 100 μM, 90 min)
ADFRKVGDALKEKYD [peptide 169, Wnt-5a aa 242-256]	effectively decreased the migration	significant DDR1 phosphorylation	increased when tested at higher purity	–	–
NKTSEGMDGCEL (Human) [peptide 175, Wnt-5a aa 311-322]	effectively decreased the migration	significant DDR1 phosphorylation	most effective	–	–
SQLAGLSQGQKKL [peptide 171, Wnt-5a aa 55-67; negative control]	no effect on migration	no DDR1 phosphorylation	lost or less consistent	most likely β1-integrin-dependent	significant effect on adhesion
